In ChEMBL document CHEMBL5604063, “ASAP - DENV-2 NS2B-NS3 protease fluorescence dose response” (2024):
“And” between values parts separate entries of the source, which are not always exact repeats. Equal entries are not always repeated.

Molecular target: Genome polyprotein (dengue virus type 2, UniProt P29990)
Type: functional, Thailand/16681/1984

Sequence of Genome polyprotein (P29990 1346-1475 limits assumed): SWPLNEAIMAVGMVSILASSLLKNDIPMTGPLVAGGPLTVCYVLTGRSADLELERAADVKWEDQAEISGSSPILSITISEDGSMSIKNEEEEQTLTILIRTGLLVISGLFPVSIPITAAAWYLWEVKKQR
Sequence of Genome polyprotein (P29990 1476-2093 limits assumed): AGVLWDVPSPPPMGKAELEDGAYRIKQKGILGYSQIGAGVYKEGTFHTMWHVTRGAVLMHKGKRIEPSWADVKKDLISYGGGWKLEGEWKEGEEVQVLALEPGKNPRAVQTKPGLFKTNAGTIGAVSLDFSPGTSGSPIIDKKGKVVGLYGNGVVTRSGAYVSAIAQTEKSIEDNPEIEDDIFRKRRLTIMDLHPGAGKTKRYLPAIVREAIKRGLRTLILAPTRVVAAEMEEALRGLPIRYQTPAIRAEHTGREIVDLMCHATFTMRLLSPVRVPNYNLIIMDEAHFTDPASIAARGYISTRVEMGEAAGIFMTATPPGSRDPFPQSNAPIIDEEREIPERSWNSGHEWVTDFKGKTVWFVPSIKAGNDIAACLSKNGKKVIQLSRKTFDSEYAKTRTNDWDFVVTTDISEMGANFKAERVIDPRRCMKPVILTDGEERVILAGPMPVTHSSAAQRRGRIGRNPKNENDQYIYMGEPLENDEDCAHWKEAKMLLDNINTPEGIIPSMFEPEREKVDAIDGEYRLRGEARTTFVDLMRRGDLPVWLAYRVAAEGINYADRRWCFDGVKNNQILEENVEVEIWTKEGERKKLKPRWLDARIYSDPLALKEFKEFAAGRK

Compound `CC(C)(C)c1cc(CN2CCC(c3cscn3)CC2)n[nH]1` has an IC50 greater than 99.5 µM.
`CN(C)Cc1cc(NC(=O)[C@@H](NC(=O)OCc2ccccc2)c2ccc(OCc3ccccc3)cc2)ccc1Cl` was tested, and the IC50 was greater than 99.5 µM.
With `CCNC(=O)Nc1cc(Cl)cc(C(=O)Nc2cccc(CN)c2)c1` the IC50 was greater than 99.5 µM.
For `Cc1ccc(NC(=O)OC(C)(C)C)c2[nH]cc(CN3CCC(c4cscn4)CC3)c12`, the IC50 was greater than 99.5 µM.
For `O=C(Nc1cc(Cl)cc(C(=O)Nc2cnc3n2CCNC3)c1)OCc1ccccc1`, the IC50 was greater than 99.5 µM.
`NCc1cccc(NC(=O)[C@@H]2CCC[C@@H](NC(=O)OCc3ccccc3)C2)c1` gave an IC50 greater than 99.5 µM.
`c1ccc(CC2CCN(Cc3c[nH]c4ccccc34)CC2)cc1` gave an IC50 greater than 99.5 µM.
With `O=C1CN(Cc2c[nH]c3ccccc23)CCN1c1cccnc1` the IC50 was greater than 99.5 µM.
In the case of `O=C(N[C@@H](C(=O)Nc1n[nH]c2c1CNC21CC1)c1ccc(OCc2ccccc2)cc1)OCc1ccccc1`, the IC50 is reported as greater than 99.5 µM.
For `COc1cc2c(CN3CCC(c4cscn4)CC3)c[nH]c2cc1Cl`, the IC50 was greater than 99.5 µM.
`O=c1ccc(-n2cncn2)nn1CC=Cc1ccccc1` was tested, and the IC50 was greater than 99.5 µM.
Work on `CCSc1nnc(SCCn2nc3ccccn3c2=O)s1` yielded an IC50 greater than 99.5 µM.
With `Cn1nc(NC(=O)[C@@H](NC(=O)OCc2ccccc2)c2ccc(OCc3ccccc3)cc2)c2c1CNC2` the IC50 was greater than 99.5 µM.
`c1cncc(N2CCCN(Cc3c[nH]c4ccccc34)CC2)c1` was tested, and the IC50 was greater than 99.5 µM.
For `O=C(Nc1cc(Cl)cc(C(=O)Nc2cc3n(n2)CCNC3)c1)OCc1ccccc1`, the IC50 was greater than 99.5 µM.
In the case of `Clc1cc(Cl)c2c(CN3CCC(c4cscn4)CC3)c[nH]c2c1`, the IC50 is reported as greater than 99.5 µM.
For `N#Cc1ccc2[nH]cc(CN3CCC(c4cscn4)CC3)c2c1`, the IC50 was greater than 99.5 µM.
`O=c1c2cccn2cnn1Cc1cnc(Cl)s1` gave an IC50 greater than 99.5 µM.
For `O=c1c2ccccc2ncn1CCCn1cnc2ccccc2c1=O`, the IC50 was greater than 99.5 µM.
With `NCc1cccc(NC(=O)c2cc(Cl)cc(CNC(=O)OCc3ccccc3)c2)c1` the IC50 was 84.3 µM.
`NCc1cccc(C(=O)Nc2cc(Cl)cc(NC(=O)OCc3ccccc3)c2)c1` gave an IC50 of 67.5 µM.
Compound `c1ccc2c(CN3CC(c4cscn4)C3)c[nH]c2c1` has an IC50 greater than 99.5 µM.
`NCc1cccc(NC(=O)c2ccc(OCC(F)(F)F)c(NC(=O)OCc3ccccc3)c2)c1` was tested, and the IC50 was greater than 99.5 µM.
`c1cc(-c2cc(CN3CCC(c4cscn4)CC3)n[nH]2)ccn1` showed an IC50 greater than 99.5 µM.
`NCc1cccc(NC(=O)[C@@H](NC(=O)OCc2ccccc2)c2ccc(Br)c(Cl)c2)c1` was tested, and the IC50 was 9.1 µM and 8.4 µM.
`O=C(N[C@@H](C(=O)Nc1nc2c(s1)CNC2)c1ccc(OCc2ccccc2)cc1)OCc1ccccc1` gave an IC50 greater than 99.5 µM.
Compound `N#Cc1cccc2c(CN3CCC(c4cscn4)CC3)c[nH]c12` has an IC50 greater than 99.5 µM.
`C1=C(c2cccnc2)CN(Cc2c[nH]c3ccccc23)CC1` gave an IC50 greater than 99.5 µM.
`O=C(O)c1cc(Cl)cc(NS(=O)(=O)c2ccc(-c3ccc(F)cc3)cc2)c1` gave an IC50 of 90.6 µM.
Compound `FC1(c2cccnc2)CN(Cc2c[nH]c3ccccc23)C1` has an IC50 greater than 99.5 µM.
Work on `O=C(Nc1cc(Cl)cc(C(=O)Nc2nc3c(s2)CNC3)c1)OCc1ccccc1` yielded an IC50 greater than 99.5 µM.
`Cc1ccc(CN(C)C)cc1NC(=O)[C@@H](NC(=O)OCc1ccccc1)c1ccc(OCc2ccccc2)cc1` gave an IC50 greater than 99.5 µM.
`CN1CCn2nc(NC(=O)[C@@H](NC(=O)OCc3ccccc3)c3ccc(OCc4ccccc4)cc3)cc2C1` was tested, and the IC50 was greater than 99.5 µM.
`c1cncc([C@@H]2CN(Cc3c[nH]c4ccccc34)CCO2)c1` gave an IC50 greater than 99.5 µM.
For `Cc1c(C(F)(F)F)n[nH]c1CN1CCC(c2cscn2)CC1`, the IC50 was greater than 99.5 µM.
Compound `c1csc(CSc2nnc(Cn3cncn3)o2)c1` has an IC50 greater than 99.5 µM.
`O=C1O[C@H]2CCN(Cc3ccc(OCc4ccccc4)cc3)C[C@H]12` was tested, and the IC50 was greater than 99.5 µM.
`Cc1[nH]c2ccccc2c1CN1CCC(c2c[nH]c3ncccc23)CC1` showed an IC50 greater than 99.5 µM.
With `O=C(Nc1cccnc1)C1CCN(Cc2c[nH]c3ccccc23)CC1` the IC50 was greater than 99.5 µM.
In the case of `c1cnc2[nH]cc(C3CCN(Cc4c[nH]c5cnccc45)CC3)c2c1`, the IC50 is reported as greater than 99.5 µM.
Compound `O=C(N[C@@H](C(=O)Nc1ncc([C@H]2CCCN2)s1)c1ccc(OCc2ccccc2)cc1)OCc1ccccc1` has an IC50 greater than 99.5 µM.
`NCc1cccc(S(=O)(=O)Cc2cc(Cl)cc(NC(=O)OCc3ccccc3)c2)c1` was tested, and the IC50 was greater than 99.5 µM.
`NCc1cccc(NC(=O)c2cc(N)cc(NC(=O)OCc3ccccc3)c2)c1` gave an IC50 greater than 99.5 µM.
`CN1CCc2nc(NC(=O)[C@@H](NC(=O)OCc3ccccc3)c3ccc(OCc4ccccc4)cc3)sc2C1` was tested, and the IC50 was greater than 99.5 µM.
Work on `CN(Cc1cccnc1)Cc1c[nH]c2ccccc12` yielded an IC50 greater than 99.5 µM.
With `CCN1CC[C@@H](COc2ccc([C@@H](NC(=O)OCc3ccccc3)C(=O)Nc3cccc(CN)c3)cc2)C1` the IC50 was greater than 99.5 µM.
With `c1csc(-c2nnc(Sc3ncnc4sccc34)o2)c1` the IC50 was greater than 99.5 µM.
Compound `Cn1nc(NC(=O)c2cc(Cl)cc(NC(=O)OCc3ccccc3)c2)c2c1CNC2` has an IC50 of 89.1 µM.
Compound `c1ccc([C@H](NCc2c[nH]c3ccccc23)c2cccnc2)cc1` has an IC50 greater than 99.5 µM.
Compound `CC[C@@H](NCc1c[nH]c2ccccc12)c1cccnc1` has an IC50 greater than 99.5 µM.
`NC[C@@H]1CN(c2cc(N3CC[C@H](N)C3)cc3c2COB3O)C(=O)O1` showed an IC50 greater than 99.5 µM.
Compound `O=C(O)c1cc(Cl)ccc1NS(=O)(=O)c1ccc(Nc2ccccc2F)nc1` has an IC50 of 43.2 µM.
With `NCc1cccc(NC(=O)C[C@@H](NC(=O)OCc2ccccc2)c2ccc(Cl)c(Br)c2)c1` the IC50 was 12.4 µM and 12.2 µM.
For `c1ccc([C@@H]2C[C@H]3C[C@@H]2C[C@H]3NCc2n[nH]c3ccccc23)cc1`, the IC50 was greater than 99.5 µM.
